In ChEMBL document CHEMBL1140238, “Synthesis of selective SRPK-1 inhibitors: novel tricyclic quinoxaline derivatives” (Bioorg Med Chem Lett, 2005):

Key:
[1] = target: Mitogen-activated protein kinase 8 (Homo sapiens) (UniProt P45983); assay: In vitro percent inhibition of c-Jun N-terminal kinase 1-alpha 1 at 10 uM concentration of compound dissolved in 100% DMSO using 5''-[gamma-33P]-triphosphate
[2] = In vitro percent inhibition of Cyclin-dependent kinase 2-cyclin A at 10 uM concentration of compound dissolved in 100% DMSO using 5''-[gamma-33P]-triphosphate
[3] = target: RAF proto-oncogene serine/threonine-protein kinase (Homo sapiens) (UniProt P04049); assay: In vitro percent inhibition of RAF proto-oncogene serine/threonine-protein kinase at 10 uM concentration of compound dissolved in 100% DMSO using 5''-[gamma-33P]-triphosphate
Chain of RAF proto-oncogene serine/threonine-protein kinase (Homo sapiens) (P04049 whole entry): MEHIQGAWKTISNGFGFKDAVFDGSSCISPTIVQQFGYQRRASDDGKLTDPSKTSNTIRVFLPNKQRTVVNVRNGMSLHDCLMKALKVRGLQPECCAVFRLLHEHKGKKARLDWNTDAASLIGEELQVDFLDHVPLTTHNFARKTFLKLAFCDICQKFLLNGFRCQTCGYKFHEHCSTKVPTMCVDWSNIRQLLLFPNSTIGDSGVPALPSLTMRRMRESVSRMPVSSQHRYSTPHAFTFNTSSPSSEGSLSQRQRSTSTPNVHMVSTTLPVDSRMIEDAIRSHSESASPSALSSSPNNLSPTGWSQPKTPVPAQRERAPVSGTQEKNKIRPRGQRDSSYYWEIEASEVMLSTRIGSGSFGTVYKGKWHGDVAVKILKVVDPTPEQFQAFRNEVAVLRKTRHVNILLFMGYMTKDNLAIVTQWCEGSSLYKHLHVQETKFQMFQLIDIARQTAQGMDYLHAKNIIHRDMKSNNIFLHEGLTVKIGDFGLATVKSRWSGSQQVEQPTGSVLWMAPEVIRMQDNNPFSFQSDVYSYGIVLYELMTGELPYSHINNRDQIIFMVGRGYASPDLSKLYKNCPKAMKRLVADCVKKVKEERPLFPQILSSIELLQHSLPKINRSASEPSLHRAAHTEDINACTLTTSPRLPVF

[4] = target: Platelet-derived growth factor receptor beta (Homo sapiens) (UniProt P09619); assay: In vitro percent inhibition of Platelet-derived growth factor receptor, beta polypeptide at 10 uM concentration of compound dissolved in 100% DMSO using 5''-[gamma-33P]-triphosphate
[5] = target: Mast/stem cell growth factor receptor Kit (Homo sapiens) (UniProt P10721); assay: In vitro percent inhibition of v-kit Hardy-Zuckerman 4 feline sarcoma viral oncogene homolog at 10 uM concentration of compound dissolved in 100% DMSO using 5''-[gamma-33P]-triphosphate
Chain of Mast/stem cell growth factor receptor Kit (Homo sapiens) (P10721 whole entry): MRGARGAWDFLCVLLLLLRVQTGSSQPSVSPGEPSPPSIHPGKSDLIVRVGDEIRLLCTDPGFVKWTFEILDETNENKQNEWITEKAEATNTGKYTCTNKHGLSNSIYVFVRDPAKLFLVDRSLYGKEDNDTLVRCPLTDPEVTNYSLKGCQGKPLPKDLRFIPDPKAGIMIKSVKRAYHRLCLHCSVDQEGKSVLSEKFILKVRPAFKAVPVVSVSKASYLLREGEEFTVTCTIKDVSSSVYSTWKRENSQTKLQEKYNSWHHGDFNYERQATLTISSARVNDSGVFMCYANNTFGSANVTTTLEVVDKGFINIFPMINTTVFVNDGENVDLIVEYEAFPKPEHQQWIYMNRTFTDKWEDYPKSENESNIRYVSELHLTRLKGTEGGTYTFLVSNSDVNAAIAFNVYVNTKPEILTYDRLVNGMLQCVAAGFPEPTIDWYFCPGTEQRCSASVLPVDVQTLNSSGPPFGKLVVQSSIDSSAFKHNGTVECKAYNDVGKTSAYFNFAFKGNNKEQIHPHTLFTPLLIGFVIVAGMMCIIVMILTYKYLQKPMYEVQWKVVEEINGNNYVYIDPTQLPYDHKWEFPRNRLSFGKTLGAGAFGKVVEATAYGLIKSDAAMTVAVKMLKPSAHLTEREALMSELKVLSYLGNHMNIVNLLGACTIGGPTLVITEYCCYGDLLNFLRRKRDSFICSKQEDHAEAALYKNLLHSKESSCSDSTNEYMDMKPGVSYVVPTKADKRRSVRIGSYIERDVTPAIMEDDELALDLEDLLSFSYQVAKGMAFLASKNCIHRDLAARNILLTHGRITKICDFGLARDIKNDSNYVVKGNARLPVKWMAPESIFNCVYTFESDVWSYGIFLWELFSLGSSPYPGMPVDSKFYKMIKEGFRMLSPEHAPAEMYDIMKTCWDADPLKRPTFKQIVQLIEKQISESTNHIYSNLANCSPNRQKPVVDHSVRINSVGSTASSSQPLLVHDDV

[6] = target: Insulin receptor (Homo sapiens) (UniProt P06213); assay: In vitro percent inhibition of Insulin receptor at 10 uM concentration of compound dissolved in 100% DMSO using 5''-[gamma-33P]-triphosphate
[7] = target: Hepatocyte growth factor receptor (Homo sapiens) (UniProt P08581); assay: In vitro percent inhibition of Met proto-oncogene tyrosine kinase at 10 uM concentration of compound dissolved in 100% DMSO using 5''-[gamma-33P]-triphosphate
[8] = target: Mitogen-activated protein kinase 3 (Homo sapiens) (UniProt P27361); assay: In vitro percent inhibition of Mitogen-activated protein kinase 3 at 10 uM concentration of compound dissolved in 100% DMSO using 5''-[gamma-33P]-triphosphate
[9] = target: Tyrosine-protein kinase Lck (Homo sapiens) (UniProt P06239); assay: In vitro percent inhibition of p56 Lck tyrosine kinase at 10 uM concentration of compound dissolved in 100% DMSO using 5''-[gamma-33P]-triphosphate
[10] = target: Rho-associated protein kinase 2 (Homo sapiens) (UniProt O75116); assay: In vitro percent inhibition of Protein kinase ROCK2 at 10 uM concentration of compound dissolved in 100% DMSO using 5''-[gamma-33P]-triphosphate
Chain of Rho-associated protein kinase 2 (Homo sapiens) (O75116 whole entry, looked up, canonical isoform): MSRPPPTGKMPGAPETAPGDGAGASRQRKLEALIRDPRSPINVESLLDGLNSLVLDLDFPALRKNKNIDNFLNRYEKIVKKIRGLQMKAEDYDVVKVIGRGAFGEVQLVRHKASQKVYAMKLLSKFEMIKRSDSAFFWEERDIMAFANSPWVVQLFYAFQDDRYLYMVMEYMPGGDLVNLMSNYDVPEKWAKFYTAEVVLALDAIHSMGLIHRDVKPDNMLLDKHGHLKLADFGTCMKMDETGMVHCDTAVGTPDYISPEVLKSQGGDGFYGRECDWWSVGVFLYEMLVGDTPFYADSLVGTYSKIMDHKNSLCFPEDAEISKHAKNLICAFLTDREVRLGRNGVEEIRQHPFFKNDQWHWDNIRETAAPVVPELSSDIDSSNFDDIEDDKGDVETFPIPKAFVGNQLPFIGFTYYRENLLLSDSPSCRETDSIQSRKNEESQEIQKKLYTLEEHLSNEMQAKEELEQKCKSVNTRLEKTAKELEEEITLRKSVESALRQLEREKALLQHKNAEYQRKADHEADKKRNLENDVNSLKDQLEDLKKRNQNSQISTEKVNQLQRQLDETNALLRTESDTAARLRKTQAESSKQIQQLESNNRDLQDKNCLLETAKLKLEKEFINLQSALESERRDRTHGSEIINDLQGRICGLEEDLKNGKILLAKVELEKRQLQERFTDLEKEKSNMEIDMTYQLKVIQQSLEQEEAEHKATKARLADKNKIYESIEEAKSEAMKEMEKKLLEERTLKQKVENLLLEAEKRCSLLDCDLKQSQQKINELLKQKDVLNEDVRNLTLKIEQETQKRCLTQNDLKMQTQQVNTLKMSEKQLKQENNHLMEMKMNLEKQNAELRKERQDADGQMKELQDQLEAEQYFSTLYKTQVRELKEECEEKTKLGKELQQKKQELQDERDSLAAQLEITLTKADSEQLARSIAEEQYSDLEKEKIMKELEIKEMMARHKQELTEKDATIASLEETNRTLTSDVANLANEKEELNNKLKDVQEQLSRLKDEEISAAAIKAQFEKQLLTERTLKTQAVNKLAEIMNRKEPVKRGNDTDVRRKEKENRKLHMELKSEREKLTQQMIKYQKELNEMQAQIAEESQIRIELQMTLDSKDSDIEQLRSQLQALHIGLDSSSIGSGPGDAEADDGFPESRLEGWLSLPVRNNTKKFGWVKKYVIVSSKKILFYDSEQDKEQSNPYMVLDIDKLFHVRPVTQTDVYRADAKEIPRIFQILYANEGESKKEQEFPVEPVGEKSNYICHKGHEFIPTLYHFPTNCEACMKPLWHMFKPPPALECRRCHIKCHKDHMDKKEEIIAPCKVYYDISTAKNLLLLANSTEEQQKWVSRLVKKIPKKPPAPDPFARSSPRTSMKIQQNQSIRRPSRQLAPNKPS

[11] = target: Casein kinase I isoform alpha (Homo sapiens) (UniProt P48729); assay: In vitro percent inhibition of Casein kinase 1 alpha at 10 uM concentration of compound dissolved in 100% DMSO using 5''-[gamma-33P]-triphosphate
Chain of Casein kinase I isoform alpha (Homo sapiens) (P48729 2-337 limits assumed): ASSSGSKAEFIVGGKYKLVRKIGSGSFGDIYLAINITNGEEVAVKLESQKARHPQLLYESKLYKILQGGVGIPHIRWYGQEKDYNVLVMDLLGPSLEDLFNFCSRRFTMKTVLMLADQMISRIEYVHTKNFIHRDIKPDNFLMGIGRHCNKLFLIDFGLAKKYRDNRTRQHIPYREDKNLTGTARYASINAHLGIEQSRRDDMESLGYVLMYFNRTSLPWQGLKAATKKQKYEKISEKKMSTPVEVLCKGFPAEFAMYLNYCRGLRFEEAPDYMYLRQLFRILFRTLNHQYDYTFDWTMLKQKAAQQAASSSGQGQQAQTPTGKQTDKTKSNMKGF

[12] = target: T1, Inhibitor of nuclear factor kappa-B kinase subunit beta (Homo sapiens) (UniProt O14920); assay: In vitro percent inhibition of I-kappa-B-kinase beta at 10 uM concentration of compound dissolved in 100% DMSO using 5''-[gamma-33P]-triphosphate
T1 sequence (whole entry): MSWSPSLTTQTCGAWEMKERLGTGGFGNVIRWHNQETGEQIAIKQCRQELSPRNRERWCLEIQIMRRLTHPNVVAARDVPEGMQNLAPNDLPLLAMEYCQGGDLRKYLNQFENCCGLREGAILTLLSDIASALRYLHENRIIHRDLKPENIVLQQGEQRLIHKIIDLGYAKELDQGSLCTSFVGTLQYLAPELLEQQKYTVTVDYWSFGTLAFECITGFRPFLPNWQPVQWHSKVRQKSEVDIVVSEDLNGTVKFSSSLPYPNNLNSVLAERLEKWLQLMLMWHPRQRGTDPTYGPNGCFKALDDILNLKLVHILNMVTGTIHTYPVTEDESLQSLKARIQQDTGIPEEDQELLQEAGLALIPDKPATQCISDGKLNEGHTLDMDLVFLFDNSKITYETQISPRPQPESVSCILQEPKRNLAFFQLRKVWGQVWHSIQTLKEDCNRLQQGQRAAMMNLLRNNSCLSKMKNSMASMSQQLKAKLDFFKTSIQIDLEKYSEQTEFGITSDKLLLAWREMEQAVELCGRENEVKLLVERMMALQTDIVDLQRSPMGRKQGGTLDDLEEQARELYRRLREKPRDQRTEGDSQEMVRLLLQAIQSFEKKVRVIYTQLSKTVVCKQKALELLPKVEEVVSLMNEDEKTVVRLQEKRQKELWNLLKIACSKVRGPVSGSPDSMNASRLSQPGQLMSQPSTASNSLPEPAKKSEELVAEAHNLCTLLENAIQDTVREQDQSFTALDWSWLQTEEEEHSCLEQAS

[13] = In vitro percent inhibition of Ribosomal S6 kinase 1 at 10 uM concentration of compound dissolved in 100% DMSO using 5''-[gamma-33P]-triphosphate
[14] = target: Proto-oncogene tyrosine-protein kinase Src (Homo sapiens) (UniProt P12931); assay: In vitro percent inhibition of c-Src tyrosine kinase at 10 uM concentration of compound dissolved in 100% DMSO using 5''-[gamma-33P]-triphosphate
[15] = target: T2, Tyrosine-protein kinase transforming protein Abl (Abelson murine leukemia virus) (UniProt P00521); assay: In vitro percent inhibition of v-Abl tyrosine kinase at 10 uM concentration of compound dissolved in 100% DMSO using 5''-[gamma-33P]-triphosphate
T2 sequence (whole entry): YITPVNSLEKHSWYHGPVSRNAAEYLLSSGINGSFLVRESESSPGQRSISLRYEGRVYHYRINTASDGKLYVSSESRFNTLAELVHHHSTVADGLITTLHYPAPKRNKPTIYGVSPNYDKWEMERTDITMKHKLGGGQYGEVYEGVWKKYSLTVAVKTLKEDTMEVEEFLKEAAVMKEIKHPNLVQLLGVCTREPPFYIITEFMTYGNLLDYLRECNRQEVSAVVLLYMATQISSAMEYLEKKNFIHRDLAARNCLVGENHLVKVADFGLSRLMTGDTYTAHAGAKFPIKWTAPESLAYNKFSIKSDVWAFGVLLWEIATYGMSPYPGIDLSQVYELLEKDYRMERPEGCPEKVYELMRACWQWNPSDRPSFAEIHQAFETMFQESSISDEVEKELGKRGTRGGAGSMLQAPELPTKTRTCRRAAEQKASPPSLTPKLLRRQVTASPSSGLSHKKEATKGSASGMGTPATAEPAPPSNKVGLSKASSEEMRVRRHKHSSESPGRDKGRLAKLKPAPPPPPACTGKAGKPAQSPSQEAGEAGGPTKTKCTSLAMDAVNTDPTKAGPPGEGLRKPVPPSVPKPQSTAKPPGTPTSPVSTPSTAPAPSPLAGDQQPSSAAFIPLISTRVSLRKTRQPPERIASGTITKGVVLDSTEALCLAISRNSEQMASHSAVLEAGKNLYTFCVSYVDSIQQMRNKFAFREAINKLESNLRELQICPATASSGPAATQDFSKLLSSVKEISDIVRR

[16] = Partition coefficient (logP); type: physicochemical; conditions: octanol/water
[17] = target: Epidermal growth factor receptor (Homo sapiens) (UniProt P00533); conditions: 10 uM
Chain of Epidermal growth factor receptor (Homo sapiens) (P00533 whole entry): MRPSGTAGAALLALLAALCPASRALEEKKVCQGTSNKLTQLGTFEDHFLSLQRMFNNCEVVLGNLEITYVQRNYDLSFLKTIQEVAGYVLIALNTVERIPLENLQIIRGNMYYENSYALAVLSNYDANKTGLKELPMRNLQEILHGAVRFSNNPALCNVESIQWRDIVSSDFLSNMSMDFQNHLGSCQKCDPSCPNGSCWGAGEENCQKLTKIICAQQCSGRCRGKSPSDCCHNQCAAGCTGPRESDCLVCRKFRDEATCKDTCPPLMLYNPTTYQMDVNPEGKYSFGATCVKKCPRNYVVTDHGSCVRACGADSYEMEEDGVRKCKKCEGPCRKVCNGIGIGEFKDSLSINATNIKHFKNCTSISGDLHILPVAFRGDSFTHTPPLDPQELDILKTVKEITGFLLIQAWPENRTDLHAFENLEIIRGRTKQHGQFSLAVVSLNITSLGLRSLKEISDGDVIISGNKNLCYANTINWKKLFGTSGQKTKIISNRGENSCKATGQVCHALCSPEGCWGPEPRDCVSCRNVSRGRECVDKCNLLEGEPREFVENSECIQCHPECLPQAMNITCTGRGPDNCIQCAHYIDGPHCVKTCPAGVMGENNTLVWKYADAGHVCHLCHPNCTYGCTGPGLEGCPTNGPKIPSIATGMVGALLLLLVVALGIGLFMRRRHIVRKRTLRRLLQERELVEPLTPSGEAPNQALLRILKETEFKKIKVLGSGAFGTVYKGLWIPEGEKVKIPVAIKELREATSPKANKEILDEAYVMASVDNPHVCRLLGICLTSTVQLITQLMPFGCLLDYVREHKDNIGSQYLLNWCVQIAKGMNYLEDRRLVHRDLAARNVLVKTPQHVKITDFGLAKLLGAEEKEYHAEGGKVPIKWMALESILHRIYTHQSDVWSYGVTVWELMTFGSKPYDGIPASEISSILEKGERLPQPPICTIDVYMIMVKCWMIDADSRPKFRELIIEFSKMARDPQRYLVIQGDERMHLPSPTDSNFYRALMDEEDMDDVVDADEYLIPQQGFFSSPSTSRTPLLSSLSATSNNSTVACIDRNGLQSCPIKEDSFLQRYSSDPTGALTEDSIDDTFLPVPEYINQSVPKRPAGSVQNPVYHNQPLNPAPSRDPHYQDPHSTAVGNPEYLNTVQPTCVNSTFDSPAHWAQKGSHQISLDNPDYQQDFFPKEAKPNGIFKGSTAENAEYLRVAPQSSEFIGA

[18] = target: Ribosomal protein S6 kinase (P70S6K) (Homo sapiens) (UniProt Q9UBS0+P23443); assay: In vitro percent inhibition of Ribosomal protein S6 kinase at 10 uM concentration of compound dissolved in 100% DMSO using 5''-[gamma-33P]-triphosphate; type: protein-complex assay
[19] = target: Glycogen synthase kinase-3 beta (Homo sapiens) (UniProt P49841); assay: In vitro percent inhibition of Glycogen synthase kinase 3 beta at 10 uM concentration of compound dissolved in 100% DMSO using 5''-[gamma-33P]-triphosphate
[20] = target: RAC-alpha serine/threonine-protein kinase (Homo sapiens) (UniProt P31749); assay: In vitro percent inhibition of Protein kinase B, alpha at 10 uM concentration of compound dissolved in 100% DMSO using 5''-[gamma-33P]-triphosphate
Chain of RAC-alpha serine/threonine-protein kinase (Homo sapiens) (P31749 whole entry): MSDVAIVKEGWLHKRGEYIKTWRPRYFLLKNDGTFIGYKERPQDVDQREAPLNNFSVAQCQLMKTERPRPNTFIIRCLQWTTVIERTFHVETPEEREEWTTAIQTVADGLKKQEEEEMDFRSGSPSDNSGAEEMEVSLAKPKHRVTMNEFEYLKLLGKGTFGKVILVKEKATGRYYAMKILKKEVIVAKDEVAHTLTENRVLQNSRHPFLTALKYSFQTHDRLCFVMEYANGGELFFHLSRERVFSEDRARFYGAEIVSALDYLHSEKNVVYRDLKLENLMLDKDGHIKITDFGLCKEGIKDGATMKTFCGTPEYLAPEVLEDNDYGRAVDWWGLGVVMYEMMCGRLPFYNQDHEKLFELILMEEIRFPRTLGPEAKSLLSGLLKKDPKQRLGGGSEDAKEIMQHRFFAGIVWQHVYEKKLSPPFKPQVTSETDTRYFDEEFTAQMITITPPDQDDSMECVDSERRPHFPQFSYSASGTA

SRPK1 (Homo sapiens) = assay: In vitro inhibition of SR protein kinase 1 by compound dissolved in 100% DMSO using 5''-[gamma-33P]-triphosphate; n.a. - not active

Compound	inhibition [1] [%]	inhibition [2] [%]	inhibition [3] [%]	inhibition [4] [%]	inhibition [5] [%]	inhibition [6] [%]	inhibition [7] [%]	inhibition [8] [%]	inhibition [9] [%]	inhibition [10] [%]	inhibition [11] [%]	inhibition [12] [%]	inhibition [13] [%]	inhibition [14] [%]	inhibition [15] [%]	logP [16]	inhibition [17] [%]	inhibition [18] [%]	inhibition [19] [%]	inhibition [20] [%]	other results
c1csc(-c2nc3cc4c(cc3nc2-c2cccs2)OCCO4)c1	24	1	4	61	46	48	42	31	53	41	8	38	19	84	11	5	34				
O=C(O)Cc1ccc(-c2nc3cc4ccccc4cc3nc2-c2ccc(CC(=O)O)s2)s1	-3	8	39	10	15	5	27	52	-9	5	-2	25	23	14	10	3.3	52	17	47	15	
O=C(O)c1ccc2cc3nc(-c4cccs4)c(-c4cccs4)nc3cc2c1	20		6	68	56	42	49	18	47	15	10	42	3	83	11	5.4	40	5	4	-10	
c1csc(-c2nc3cc4c(cc3nc2-c2cccs2)OCO4)c1	18	-4	21	54	38	29	34	14	41	31	9	28	1	71	14	4.8	35	6	-1	-6	
COC(=O)CCCc1ccc(-c2nc3cc4ccccc4cc3nc2-c2ccc(CCCC(=O)OC)s2)s1	9	25	42	47	5		12	8	2	5	30	16	38		15	5.5	8	-7	24	-6	IC50 (SRPK1 (Homo sapiens)): Not Active
O=C(O)CCc1ccc(-c2nc3cc4ccccc4cc3nc2-c2ccc(CCC(=O)O)s2)s1	-5	-4	18	49	52	-5	32	11	-3	18	40	54	30	70	3	4.28	40	29	23	0	
Oc1cc2nc(-c3cccs3)c(-c3cccs3)nc2cc1O	-3	7	3		-7	-4	0	25	1		9	3	6	-3	1	4.2	25	-8	5	-7	
c1csc(-c2nc3cc4ccccc4cc3nc2-c2cccs2)c1	6	3	16	15	8	55	43	11		19	7	6	6	20	4	5.98	6	8	6	12	
